Literature values as cited in patent publication US20250241356A1, “ORAL COMPOSITION COMPRISING RECEPTOR MODULATOR” (NICOVENTURES TRADING LIMITED, priority 2022, published 2025).
Like-named read-outs stand apart in the source and are kept apart here.

What was measured:
[1] = molecular target: TRPM8 (Mus musculus, UniProt Q8R4D5)
Sequence of TRPM8 (Q8R4D5 whole entry): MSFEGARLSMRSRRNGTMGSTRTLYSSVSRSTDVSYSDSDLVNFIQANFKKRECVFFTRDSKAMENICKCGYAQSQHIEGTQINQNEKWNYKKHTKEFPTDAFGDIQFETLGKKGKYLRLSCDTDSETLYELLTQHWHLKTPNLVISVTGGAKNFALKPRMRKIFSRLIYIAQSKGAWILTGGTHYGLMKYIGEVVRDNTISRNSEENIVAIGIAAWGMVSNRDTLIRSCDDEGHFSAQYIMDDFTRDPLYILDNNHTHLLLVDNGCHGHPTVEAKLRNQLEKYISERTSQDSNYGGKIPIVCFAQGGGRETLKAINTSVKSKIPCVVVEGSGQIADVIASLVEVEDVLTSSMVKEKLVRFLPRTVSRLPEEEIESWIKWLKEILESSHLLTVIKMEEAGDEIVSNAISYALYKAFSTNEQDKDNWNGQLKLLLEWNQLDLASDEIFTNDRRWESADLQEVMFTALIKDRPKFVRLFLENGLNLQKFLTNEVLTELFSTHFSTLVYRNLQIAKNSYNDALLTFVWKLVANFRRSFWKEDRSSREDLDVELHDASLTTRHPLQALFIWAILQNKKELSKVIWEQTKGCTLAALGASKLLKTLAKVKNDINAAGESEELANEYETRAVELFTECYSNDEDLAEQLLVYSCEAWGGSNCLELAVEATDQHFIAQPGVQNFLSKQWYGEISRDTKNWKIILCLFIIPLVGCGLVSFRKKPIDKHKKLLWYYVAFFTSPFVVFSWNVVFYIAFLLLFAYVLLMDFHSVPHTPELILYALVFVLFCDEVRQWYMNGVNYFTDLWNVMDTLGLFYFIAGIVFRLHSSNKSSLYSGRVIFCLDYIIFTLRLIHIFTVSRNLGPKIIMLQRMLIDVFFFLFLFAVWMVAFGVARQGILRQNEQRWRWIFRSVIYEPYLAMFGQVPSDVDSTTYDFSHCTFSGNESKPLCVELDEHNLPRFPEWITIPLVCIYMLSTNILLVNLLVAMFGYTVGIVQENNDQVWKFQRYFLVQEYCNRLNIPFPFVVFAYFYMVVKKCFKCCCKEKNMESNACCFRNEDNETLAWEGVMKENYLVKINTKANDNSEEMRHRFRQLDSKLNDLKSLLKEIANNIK

Structure (SMILES) | solubility in water | solubility in fats and alcohols | chemical stability when isolated (converts via isomerization into trans-bixin (β-bixin)) | responses to icilin ([1]; extracellular [H+] increased from pH 7.3 to approximately pH 6) | responses to icilin ([1]; standard physiological solutions of pH 7.3)
CC(/C=C/C=C(C)/C=C/C(=O)O)=C\C=C\C=C(C)\C=C\C=C(C)\C=C\C(=O)O (stereo in doubt) [norbixin, (2E,4E,6E,8E,10E,12E,14E,16E,18E)-4,8,13,17-tetramethylicosa-2,4,6,8,10,12,14,16,18-nonaenedioic acid] | water-soluble |  |  |  | 
COC(=O)/C=C/C(C)=C\C=C\C(C)=C\C=C\C=C(C)\C=C\C=C(C)\C=C\C(=O)O [bixin, (2E,4E,6E,8E,10E,12E,14E,16Z,18E)-20-methoxy-4,8,13,17-tetramethyl-20-oxoicosa-2,4,6,8,10,12,14,16,18-nonaenoic acid] | insoluble in water | soluble in fats and alcohols | chemically unstable when isolated |  | 
O=C1NC(c2cccc([N+](=O)[O-])c2)=CCN1c1ccccc1O [icilin, 1-(2-hydroxyphenyl)-4-(3-nitrophenyl)-3,6-dihydropyrimidin-2-one] |  |  |  | abolished | evokes [Ca2+] dependent responses
